# Calls of active or inactive are those of the source.
# Key:
# cells = type: functional
# [1] = target: T1, Rac GTPase-activating protein 1 (Homo sapiens, UniProt Q9H0H5); test: MgcRacGAP GTPase-activating activity inhibitors, confirmation, biochemical, ADP Hunter fluorescence, primary and confirmatory (AID 624330); type: functional
# T1 sequence (Q9H0H5 whole entry): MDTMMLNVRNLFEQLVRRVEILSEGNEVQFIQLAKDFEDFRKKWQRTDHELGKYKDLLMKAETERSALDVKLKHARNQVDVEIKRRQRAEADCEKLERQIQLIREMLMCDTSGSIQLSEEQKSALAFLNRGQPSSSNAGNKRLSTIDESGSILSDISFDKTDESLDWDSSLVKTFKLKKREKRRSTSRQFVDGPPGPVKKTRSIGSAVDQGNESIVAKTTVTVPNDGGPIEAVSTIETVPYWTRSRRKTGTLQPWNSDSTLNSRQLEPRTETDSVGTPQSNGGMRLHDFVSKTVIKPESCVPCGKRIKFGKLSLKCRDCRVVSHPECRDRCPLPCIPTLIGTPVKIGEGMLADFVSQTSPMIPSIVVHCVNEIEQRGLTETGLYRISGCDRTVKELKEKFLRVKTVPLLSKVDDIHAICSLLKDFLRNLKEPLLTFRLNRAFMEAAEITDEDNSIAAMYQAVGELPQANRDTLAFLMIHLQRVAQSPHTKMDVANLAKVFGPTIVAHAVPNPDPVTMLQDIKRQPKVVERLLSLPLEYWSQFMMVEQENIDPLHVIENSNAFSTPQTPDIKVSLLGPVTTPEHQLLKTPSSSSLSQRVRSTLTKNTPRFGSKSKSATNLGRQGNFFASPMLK
# [2] = Luminescence Cell-Based Dose Confirmation HTS to Identify Activators of 5'UTR Stem-Loop Driven Alpha-Synuclein mRNA Translation in H4 Neuroglioblastoma Cells. [Related pubchem assays: 1829 (Project Summary), 1814 (Primary HTS)]; type: functional
# [3] = Luminescence Cell-Based Dose Response HTS to Identify Activators of Luciferase Translation or Activity in H4 […] Cells. [Related pubchem assays: 1829 (Project Summary), 1814 (Primary HTS)]; type: functional
# H4 = test: Luminescence Cell-Based Dose Response HTS to Identify Activators of 5'UTR Stem-Loop Driven Prion Protein mRNA Translation in H4 Neuroglioblastoma Cells. [Related pubchem assays: 1829 (Project Summary), 1814 (Primary HTS)]; type: functional; conditions: Homo sapiens
# Genome polyprotein = Genome polyprotein (dengue virus type 2, UniProt P29990); test: Dengue-2 NS5 methyltransferase inhibitors, primary screen, biochemical, confirmation dose response (AID 588689); type: functional
# Chain of Genome polyprotein (P29990 2492-3391 limits assumed): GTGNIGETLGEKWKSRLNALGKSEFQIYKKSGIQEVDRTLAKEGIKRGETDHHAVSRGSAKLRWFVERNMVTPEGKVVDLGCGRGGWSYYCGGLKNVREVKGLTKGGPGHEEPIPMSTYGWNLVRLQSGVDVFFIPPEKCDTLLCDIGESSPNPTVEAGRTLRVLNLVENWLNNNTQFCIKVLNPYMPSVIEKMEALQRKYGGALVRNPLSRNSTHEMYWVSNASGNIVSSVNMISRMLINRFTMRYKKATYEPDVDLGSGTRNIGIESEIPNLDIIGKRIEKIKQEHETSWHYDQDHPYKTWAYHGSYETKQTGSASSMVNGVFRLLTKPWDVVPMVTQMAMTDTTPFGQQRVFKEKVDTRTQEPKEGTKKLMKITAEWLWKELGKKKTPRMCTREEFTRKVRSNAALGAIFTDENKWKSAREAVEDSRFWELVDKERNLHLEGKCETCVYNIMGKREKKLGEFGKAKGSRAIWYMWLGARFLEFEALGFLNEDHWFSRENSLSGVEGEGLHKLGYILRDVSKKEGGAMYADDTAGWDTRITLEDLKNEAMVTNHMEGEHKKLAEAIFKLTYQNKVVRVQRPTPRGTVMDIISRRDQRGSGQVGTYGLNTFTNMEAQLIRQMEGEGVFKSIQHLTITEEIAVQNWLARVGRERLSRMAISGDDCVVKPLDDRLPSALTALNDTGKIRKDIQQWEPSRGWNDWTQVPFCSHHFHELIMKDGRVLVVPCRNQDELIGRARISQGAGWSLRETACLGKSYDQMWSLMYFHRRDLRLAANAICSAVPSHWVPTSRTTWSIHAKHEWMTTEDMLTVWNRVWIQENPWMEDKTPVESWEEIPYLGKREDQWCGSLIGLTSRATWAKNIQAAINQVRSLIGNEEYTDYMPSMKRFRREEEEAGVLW
# [4] = target: T2, RNA-binding protein pos-1 (Caenorhabditis elegans, UniProt G5EF15); test: inhibitors of POS-1/mex-3 RNA binding, dose response, biochemical, fluorescence polarization (AID 1964);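 further: purified POS-1 fused to maltose binding protein made in E. coli; potency of compounds blocking POS-1 binding to fluorescent RNA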
# T2 sequence (G5EF15 whole entry): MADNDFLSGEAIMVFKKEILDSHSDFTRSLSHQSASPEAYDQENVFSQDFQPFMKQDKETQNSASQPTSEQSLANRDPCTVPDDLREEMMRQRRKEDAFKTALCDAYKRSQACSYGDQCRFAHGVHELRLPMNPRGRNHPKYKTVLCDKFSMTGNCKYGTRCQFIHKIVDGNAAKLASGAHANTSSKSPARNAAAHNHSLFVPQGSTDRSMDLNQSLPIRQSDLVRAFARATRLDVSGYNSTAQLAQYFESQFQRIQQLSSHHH
# [5] = target: T3, Zinc finger protein mex-5 (Caenorhabditis elegans, UniProt Q9XUB2); test: MEX-5/TCR-2 RNA interaction inhibitors, dose response, biochemical, C. elegans, fluorescence polarization (AID 1960)
# T3 sequence (Q9XUB2 whole entry): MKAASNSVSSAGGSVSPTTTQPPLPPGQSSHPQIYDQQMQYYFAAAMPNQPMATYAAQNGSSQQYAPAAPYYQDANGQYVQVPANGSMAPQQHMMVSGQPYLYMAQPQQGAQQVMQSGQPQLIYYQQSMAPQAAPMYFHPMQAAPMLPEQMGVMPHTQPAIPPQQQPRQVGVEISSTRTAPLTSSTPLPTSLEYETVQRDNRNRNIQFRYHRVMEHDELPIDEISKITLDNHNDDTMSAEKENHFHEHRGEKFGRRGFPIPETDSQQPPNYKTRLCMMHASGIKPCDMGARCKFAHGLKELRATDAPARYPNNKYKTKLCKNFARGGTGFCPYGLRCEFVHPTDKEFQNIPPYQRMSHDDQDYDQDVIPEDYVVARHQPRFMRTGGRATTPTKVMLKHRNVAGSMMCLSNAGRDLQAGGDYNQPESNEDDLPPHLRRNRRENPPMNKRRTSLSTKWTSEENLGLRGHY
# [6] = Shn3 3'UTR reporter inhibitors, dose response, cell-based, Clone20 osteoblasts, firefly luciferase, cherry-picked (AID 624132); type: functional;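 further: firefly luciferase luminescence from reporter carrying the Shn3 3'UTR in osteoblasts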
# [7] = HepG2 cell cytotoxicity, dose response, cytotoxicity control for Shn3 inhibitor project, CellTiter-Glo, cherry-picked (AID 624134); type: functional, cell-based
# [8] = control 3'UTR Renilla luciferase suppression, dose response, counter-screen for Shn3 inhibitor project, cell-based, Clone20-Shn3RL, cherry-picked (AID 624133); type: functional
# [9] = inhibitors of intracellular T. cruzi replication, confirmation, NIH3T3 host cells, beta-gal luminescence (AID 2044); type: functional, cell-based;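 further: intracellular parasites grown in NIH/3T3 mouse fibroblasts as host cells; luminescent beta-galactosidase reporter signal from transgenic T. cruzi replicating inside host cells; inhibitors lower the luminescence signal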
# [10] = cytotoxicity toward NIH3T3 fibroblasts, dose response, counter-screen, cell-based, ATP luminescence, mouse fibroblasts (AID 2010); type: functional;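 further: cells exposed to compound for about 90 hours before reading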
# Nonstructural protein 1 = Nonstructural protein 1 (Influenza A virus, UniProt Q194T2); type: functional, Influenza A virus (A/California/07/2009(H1N1))
# Chain of Nonstructural protein 1 (Q194T2 whole entry): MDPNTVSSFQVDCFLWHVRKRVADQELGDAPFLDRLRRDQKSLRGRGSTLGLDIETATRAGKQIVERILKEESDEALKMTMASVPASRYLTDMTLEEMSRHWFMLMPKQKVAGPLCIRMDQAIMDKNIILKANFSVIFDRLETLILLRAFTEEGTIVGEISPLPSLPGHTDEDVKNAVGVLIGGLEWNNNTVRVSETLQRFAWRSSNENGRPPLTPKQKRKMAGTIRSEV
# [11] = target: Luciferin 4-monooxygenase (Photinus pyralis, UniProt P08659); test: firefly luciferase enzyme inhibitors, dose response, biochemical, luminescence (AID 1891)
# Chain of Luciferin 4-monooxygenase (P08659 whole entry): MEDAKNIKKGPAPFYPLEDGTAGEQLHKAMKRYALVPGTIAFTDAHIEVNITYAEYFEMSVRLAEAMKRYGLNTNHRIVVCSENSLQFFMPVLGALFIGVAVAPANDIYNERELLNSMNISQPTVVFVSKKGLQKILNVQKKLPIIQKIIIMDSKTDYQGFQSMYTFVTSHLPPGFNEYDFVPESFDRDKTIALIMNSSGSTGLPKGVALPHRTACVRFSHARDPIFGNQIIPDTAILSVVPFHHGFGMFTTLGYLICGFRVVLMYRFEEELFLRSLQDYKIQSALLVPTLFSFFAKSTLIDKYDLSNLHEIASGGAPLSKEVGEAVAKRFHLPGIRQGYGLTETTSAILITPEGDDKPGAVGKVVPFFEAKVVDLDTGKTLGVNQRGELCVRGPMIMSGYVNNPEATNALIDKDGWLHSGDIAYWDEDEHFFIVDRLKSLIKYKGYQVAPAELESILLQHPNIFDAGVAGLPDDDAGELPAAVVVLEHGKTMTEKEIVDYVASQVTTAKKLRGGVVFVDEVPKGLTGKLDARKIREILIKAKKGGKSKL
# [12] = Luminescence Cell-Based Dose Confirmation HTS to Identify Inhibitors of Platelet Dense Granule Release. [Related pubchem assays: 1663 (Primary HTS), 1678 (Summary of Project)]; type: functional
# P388/ADR = test: cells; type: functional; conditions: Mus musculus
# SN12K1 = test: cells; type: functional; conditions: Homo sapiens
# P388 = test: cells; type: functional; conditions: Mus musculus
# Fatty acid synthase = Fatty acid synthase (Homo sapiens, UniProt P49327); test: FAS thioesterase domain inhibitors, dose response, biochemical, kinetic fluorescence intensity (AID 624326); type: functional;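 further: rate of fluorescence rise from hydrolysis of a fluorogenic O-methyl fluorescein ester substrate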
# Chain of Fatty acid synthase (P49327 whole entry, the tested form may be a part): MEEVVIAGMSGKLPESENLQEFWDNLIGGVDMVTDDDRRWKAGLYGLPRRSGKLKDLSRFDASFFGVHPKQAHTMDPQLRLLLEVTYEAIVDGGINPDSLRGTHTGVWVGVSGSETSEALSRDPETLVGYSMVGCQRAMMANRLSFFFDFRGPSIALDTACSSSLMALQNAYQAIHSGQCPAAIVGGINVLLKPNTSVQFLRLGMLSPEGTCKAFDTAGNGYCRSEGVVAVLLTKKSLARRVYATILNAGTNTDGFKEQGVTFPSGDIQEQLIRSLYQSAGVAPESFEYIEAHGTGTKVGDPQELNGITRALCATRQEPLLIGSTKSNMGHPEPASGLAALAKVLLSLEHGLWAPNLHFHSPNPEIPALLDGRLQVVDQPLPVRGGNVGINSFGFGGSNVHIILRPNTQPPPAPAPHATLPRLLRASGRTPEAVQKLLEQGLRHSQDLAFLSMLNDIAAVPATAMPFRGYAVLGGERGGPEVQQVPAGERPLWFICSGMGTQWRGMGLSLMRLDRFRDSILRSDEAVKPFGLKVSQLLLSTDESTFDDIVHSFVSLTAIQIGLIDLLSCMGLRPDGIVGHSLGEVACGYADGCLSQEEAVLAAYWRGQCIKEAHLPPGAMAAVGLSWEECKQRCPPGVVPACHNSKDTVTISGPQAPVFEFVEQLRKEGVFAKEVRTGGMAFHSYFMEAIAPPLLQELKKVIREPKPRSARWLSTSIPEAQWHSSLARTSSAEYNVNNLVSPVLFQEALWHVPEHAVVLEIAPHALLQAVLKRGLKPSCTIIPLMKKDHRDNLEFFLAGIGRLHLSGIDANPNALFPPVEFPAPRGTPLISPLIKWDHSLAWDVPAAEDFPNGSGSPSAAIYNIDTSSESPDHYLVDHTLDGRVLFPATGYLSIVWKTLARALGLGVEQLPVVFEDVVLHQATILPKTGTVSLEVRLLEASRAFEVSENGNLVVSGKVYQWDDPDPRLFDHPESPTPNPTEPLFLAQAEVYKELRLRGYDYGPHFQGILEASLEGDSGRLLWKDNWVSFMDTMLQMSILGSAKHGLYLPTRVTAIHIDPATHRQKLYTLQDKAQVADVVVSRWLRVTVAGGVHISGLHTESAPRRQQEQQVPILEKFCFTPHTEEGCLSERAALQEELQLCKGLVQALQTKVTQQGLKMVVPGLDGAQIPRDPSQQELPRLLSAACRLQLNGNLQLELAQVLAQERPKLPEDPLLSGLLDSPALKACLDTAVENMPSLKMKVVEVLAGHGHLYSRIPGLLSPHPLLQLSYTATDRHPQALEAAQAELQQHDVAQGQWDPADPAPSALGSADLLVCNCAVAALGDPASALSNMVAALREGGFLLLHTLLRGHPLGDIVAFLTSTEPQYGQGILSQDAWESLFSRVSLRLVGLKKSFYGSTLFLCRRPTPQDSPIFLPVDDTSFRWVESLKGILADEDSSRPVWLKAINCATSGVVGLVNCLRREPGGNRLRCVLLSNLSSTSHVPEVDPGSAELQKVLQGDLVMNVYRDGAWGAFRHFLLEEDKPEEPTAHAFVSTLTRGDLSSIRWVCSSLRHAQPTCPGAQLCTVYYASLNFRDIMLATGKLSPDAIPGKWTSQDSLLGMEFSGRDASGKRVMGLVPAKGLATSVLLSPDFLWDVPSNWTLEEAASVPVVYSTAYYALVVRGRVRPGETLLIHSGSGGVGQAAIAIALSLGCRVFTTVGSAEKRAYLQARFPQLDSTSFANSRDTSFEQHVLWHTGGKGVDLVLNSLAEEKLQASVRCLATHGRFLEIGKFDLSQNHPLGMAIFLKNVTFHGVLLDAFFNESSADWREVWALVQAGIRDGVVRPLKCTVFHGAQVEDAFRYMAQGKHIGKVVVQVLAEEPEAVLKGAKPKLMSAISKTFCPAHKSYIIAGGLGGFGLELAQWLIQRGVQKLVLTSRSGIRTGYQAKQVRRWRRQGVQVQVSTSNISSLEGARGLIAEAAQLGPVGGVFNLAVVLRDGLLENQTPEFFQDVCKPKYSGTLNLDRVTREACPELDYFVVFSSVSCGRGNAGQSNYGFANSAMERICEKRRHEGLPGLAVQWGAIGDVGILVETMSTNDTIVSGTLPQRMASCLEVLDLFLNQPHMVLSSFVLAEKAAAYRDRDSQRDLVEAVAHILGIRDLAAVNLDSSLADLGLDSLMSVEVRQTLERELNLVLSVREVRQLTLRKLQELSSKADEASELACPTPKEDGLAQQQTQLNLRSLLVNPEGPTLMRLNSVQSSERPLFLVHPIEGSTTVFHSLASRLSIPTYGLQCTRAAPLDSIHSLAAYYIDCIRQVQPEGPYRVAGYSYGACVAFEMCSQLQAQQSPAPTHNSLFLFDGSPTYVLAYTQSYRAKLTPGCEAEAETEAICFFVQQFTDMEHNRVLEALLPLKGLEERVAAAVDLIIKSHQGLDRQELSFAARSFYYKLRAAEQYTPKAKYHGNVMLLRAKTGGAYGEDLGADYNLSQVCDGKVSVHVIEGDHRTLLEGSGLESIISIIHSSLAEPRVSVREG
compound,measurement,setting,value
c1ccc(-c2ccccc2OCCCCn2ccnc2)cc1,IC50,cells,18.1 µM (active)
same,IC50,[1],127 µM (active)
CCOC(=O)c1cc(C)n(CCc2ccccc2)c1C,EC50,[2],> 120 µM (not active)
same,EC50,[3],15.7 µM (active)
same,EC50,H4,> 120 µM (not active)
CCc1cccc(NC(=O)Nc2cccs2)c1,EC50,[2],14.6 µM (active)
same,EC50,[3],2.48 µM (active)
same,EC50,H4,> 120 µM (not active)
O=C(O)/C=C/C(=O)c1c(-c2ccccc2)[nH]c2ccccc12,IC50,Genome polyprotein,> 100 µM (active)
O=C1NC(=O)C(=Cc2cc(Cl)ccc2OCc2ccc(C(=O)O)cc2)C(=O)N1,IC50,Genome polyprotein,20.7 µM (active)
CC(=O)c1ccc2c(c1)C1C=CCC1C(c1ccncc1)N2 (stereo not drawn),EC50,[4],> 300 µM (not active)
same,EC50,[2],14.4 µM (active)
same,EC50,[3],9.61 µM (active)
same,EC50,H4,25.5 µM (active)
same,EC50,[5],47.7 µM (active)
COc1ccc(C(=O)C(C)OC(=O)c2cccc(S(=O)(=O)Nc3cc(Cl)c(OC)cc3OC)c2)cc1 (stereo not drawn),AC50,[6],5.54 µM (active)
same,AC50,[7],> 70 µM (inactive)
same,AC50,[8],28.6 µM (active)
CCCOC1CCCN(C(=O)c2cc(COc3cncc(Cl)c3)on2)C1 (stereo not drawn),EC50,[2],3.46 µM (active)
same,EC50,[3],47.5 µM (active)
same,EC50,H4,59.7 µM (active)
O=C1ON=C(c2ccc([N+](=O)[O-])cc2)/C1=C/c1ccccc1O,IC50,Genome polyprotein,32.4 µM (active)
O=C(Nc1ccccc1F)c1ccc2nc(N3C(=O)CCC3=O)sc2c1,EC50,[2],29.8 µM (active)
same,EC50,[3],32.5 µM (active)
same,EC50,H4,8.54 µM (active)
CCCCNC(=O)COC(=O)c1cc(Br)ccc1Cl,IC50,cells,9.24 µM (active)
Cc1ccc(S(=O)(=O)NCc2ccc3c(c2)cc(C)n3C)cc1,EC50,[9],3.2 µM (active)
same,EC50,[10],> 60 µM (not active)
same,IC50,Nonstructural protein 1,86.6 µM (active)
CCN(CC)CCNC(=O)c1nn(-c2ccc(C)cc2)c(=O)c2c1c1ccccc1n2C,EC50,[2],15 µM (active)
same,EC50,[3],> 120 µM (not active)
same,EC50,H4,61.3 µM (active)
same,EC50,[9],0.157 µM (active)
same,EC50,[10],> 30 µM (not active)
COc1cc(O)c2c(=O)c(-c3ccc(O[C@@H]4O[C@H](CO)[C@@H](O)[C@H](O)[C@H]4O)cc3)coc2c1,EC50,[2],0.25 µM (active)
same,EC50,[3],38.6 µM (active)
same,EC50,H4,21.2 µM (active)
O=C(/C=C/c1ccccc1Cl)Nc1ccncc1,EC50,[2],26.2 µM (active)
same,EC50,[3],56.2 µM (active)
same,EC50,H4,0.524 µM (active)
same,EC50,[11],20.6 µM (active)
same,EC50,[12],26.7 µM (active)
C=C1CC(COc2cc(=O)oc3ccccc23)(c2ccccc2)OC1=O (stereo not drawn),AC50,[6],3.93 µM (active)
same,AC50,[7],13.7 µM (active)
same,AC50,[8],7.58 µM (active)
CC(C)(C)OC(=O)NCCCCCNC(=O)c1[nH]cnc1C(=O)NCc1ccc(CNC(=O)OC(C)(C)C)cc1,AC50,[6],3.95 µM (active)
same,AC50,[7],> 70 µM (inactive)
same,AC50,[8],8.62 µM (active)
CCN1CC2(CO)CCC(OC)C34C5CC6C(OC)CC(O)(C5C6OC)C(O)(C(OC)C23)C14 (stereo not drawn),GI50,P388/ADR,> 80.7 µM (inactive)
same,GI50,SN12K1,> 375 µM (inactive)
same,GI50,P388,> 174 µM (inactive)
O=C(O)CCC(NC(=O)c1ccc(Nc2nc3ccc(C(F)(F)F)cc3nc2-c2ccccc2)cc1)C(=O)O (stereo not drawn),GI50,P388/ADR,71.1 µM (inactive)
same,GI50,SN12K1,> 100 µM (inactive)
same,GI50,P388,35 µM (inactive)
Cn1c(-c2ccccc2)cc(-c2cccs2)c1-c1cccs1,GI50,P388/ADR,33.2 µM (inactive)
same,GI50,SN12K1,18.1 µM (inactive)
same,GI50,P388,10.8 µM (inactive)
C=C1C(=O)OC2CC3(C)OC3C3OC3C3=CC(OC3=O)C12 (stereo not drawn),AC50,[6],1.45 µM (active)
same,AC50,[7],19.2 µM (active)
same,AC50,[8],1.86 µM (active)
Cn1cccc1/C=N/NC(=O)c1ccncc1,IC50,cells,0.75 µM (active)
O=CNc1cccc2c3c([nH]c12)CCCCCC3,GI50,P388/ADR,73.1 µM (inactive)
same,GI50,SN12K1,> 100 µM (inactive)
same,GI50,P388,> 65.3 µM (inactive)
CC1[C@@H]2CC=C3[C@H]4CCC5Cc6nc7c(nc6C[C@@]5(C)C4(O)CC(=O)[C@]32CO[C@]12OC(C)(C)CC2O)CC1CC[C@@H]2C3=C[C@H]4O[C@@]5(O[C@@](C)(CO)C[C@@H]5O)C(C)[C@@]4(O)[C@]3(C)[C@@H](O)CC2[C@]1(C)C7 (stereo partly drawn),GI50,P388/ADR,0.00879 µM (active)
same,GI50,P388,0.00036 µM (active)
CN(C)CCNCc1c2ccccc2c(CNCCN(C)C)c2ccccc12,GI50,P388/ADR,> 100 µM (inactive)
same,GI50,SN12K1,25 µM (inactive)
same,GI50,P388,36.9 µM (inactive)
O=C(N/N=C/c1ccccn1)c1cccc(S(=O)(=O)Nc2ccccc2Cl)c1,IC50,cells,47.1 µM (active)
O=C(N/N=C/c1cccc2nccnc12)c1ccncc1,IC50,cells,0.21 µM (active)
Cc1cc(C(=O)N/N=C/c2cc([N+](=O)[O-])cc(C)c2O)[nH]n1,IC50,Nonstructural protein 1,8.76 µM (active)
same,IC50,Fatty acid synthase,11.8 µM (active)
O=C(N/N=C/C=C/c1ccccc1[N+](=O)[O-])c1ccncc1,IC50,cells,0.4 µM (active)
Nc1nc(=O)n(C2OC(CO)C(O)C2O)cc1F (stereo not drawn),GI50,P388/ADR,0.016 µM (active)
same,GI50,SN12K1,0.0705 µM (active)
same,GI50,P388,< 0.0107 µM (active)
O[C@H]1[C@H](O)[C@@H](O)CN2CC[C@H](O)[C@H]12 [CASTANOSPERMINE],GI50,P388/ADR,> 91 µM (inactive)
same,GI50,SN12K1,> 100 µM (inactive)
same,GI50,P388,> 100 µM (inactive)
CN(C)/N=N/c1[nH]cnc1C(N)=O [DACARBAZINE],GI50,P388/ADR,40.3 µM (inactive)
same,GI50,SN12K1,28.6 µM (inactive)
same,GI50,P388,19.3 µM (inactive)
